Where a name gives a salt, the structure may show the parent alone. A value given as a limit tells only on which side of the number the result lay.

One may read the IC50 as the midpoint of a concentration-inhibition curve.

What all share (assay type): cell-based
Assay [1] deals with EGFR(D770_N771insSVD) expressing Ba/F3 stable cell line (Homo sapiens, UniProt P00533, DUP768-770, cells depend on it). As to the kind of experiment: Cellular proliferation (Alamar Blue) assay, EGFR D770_N771insSVD Ba/F3. Particulars: EGFR D770_N771insSVD Ba/F3, 72 hr, read-out: D770 IC50. Summed up: (§1)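 Ba/F3 lines were seeded at 15,000 cells/well in RPMI with 10% FBS and rested 16–18 h at 37 °C. Compounds were added as 3-fold serial dilutions (final 10–0.0005 μM) for 72 h, then Alamar Blue was added for 3 h and fluorescence read at 540 nm excitation/590 nm emission.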
Sequence of EGFR(D770_N771insSVD) expressing Ba/F3 stable cell line (P00533 with tags, fused parts or gaps DUP768-770): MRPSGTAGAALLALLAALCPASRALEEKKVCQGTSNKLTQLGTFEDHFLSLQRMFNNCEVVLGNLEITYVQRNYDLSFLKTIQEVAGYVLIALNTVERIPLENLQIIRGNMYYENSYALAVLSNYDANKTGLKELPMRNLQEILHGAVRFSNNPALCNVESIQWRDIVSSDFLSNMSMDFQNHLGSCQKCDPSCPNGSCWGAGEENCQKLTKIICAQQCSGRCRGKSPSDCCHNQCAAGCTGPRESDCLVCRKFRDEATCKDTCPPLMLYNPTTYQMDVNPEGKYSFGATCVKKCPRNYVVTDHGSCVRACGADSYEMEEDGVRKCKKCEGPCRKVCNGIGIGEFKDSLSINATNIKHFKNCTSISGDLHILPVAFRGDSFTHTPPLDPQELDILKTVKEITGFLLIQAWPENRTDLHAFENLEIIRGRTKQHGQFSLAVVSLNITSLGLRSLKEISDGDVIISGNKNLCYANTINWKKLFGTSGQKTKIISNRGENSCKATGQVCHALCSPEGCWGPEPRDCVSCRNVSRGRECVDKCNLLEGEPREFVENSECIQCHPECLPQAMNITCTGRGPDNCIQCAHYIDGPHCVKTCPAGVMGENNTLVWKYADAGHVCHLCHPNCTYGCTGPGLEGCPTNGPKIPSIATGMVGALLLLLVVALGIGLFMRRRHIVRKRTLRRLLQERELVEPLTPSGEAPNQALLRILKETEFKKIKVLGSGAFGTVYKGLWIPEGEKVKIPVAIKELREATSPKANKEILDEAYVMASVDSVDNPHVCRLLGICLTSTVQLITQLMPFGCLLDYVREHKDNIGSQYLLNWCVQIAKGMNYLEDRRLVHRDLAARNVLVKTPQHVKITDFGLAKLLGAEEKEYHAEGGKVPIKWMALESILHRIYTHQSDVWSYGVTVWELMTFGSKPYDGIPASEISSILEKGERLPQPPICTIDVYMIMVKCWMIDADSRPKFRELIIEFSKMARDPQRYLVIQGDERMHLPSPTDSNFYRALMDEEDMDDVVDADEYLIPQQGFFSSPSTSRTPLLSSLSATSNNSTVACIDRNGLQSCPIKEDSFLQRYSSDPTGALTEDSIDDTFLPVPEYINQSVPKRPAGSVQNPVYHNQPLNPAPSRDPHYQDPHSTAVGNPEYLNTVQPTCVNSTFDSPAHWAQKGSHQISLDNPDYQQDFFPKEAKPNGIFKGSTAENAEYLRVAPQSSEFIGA
Background: Resazurin is reduced to fluorescent resorufin, in cell work by metabolically active cells.

Assay [2] has as its target EGFR (A767_dupASV) expressing Ba/F3 stable cell line (Homo sapiens, UniProt P00533, DUP767-769, cells depend on it). As to the kind of experiment: Cellular proliferation (Alamar Blue) assay, EGFR A767_dupASV Ba/F3. Particulars: EGFR A767_dupASV Ba/F3, 72 hr, read-out: A767 IC50. The essentials: as §1
In assay [3] the target is HER2 (A775_G776insYVMA) expressing Ba/F3 stable cell line (Homo sapiens, UniProt P04626, DUP772-775, cells depend on it). Briefly: Cellular proliferation (Alamar Blue) assay, HER2 YVMA Ba/F3. Particulars: HER2 A775_G776insYVMA Ba/F3, 72 hr, read-out: YVMA IC50. The protocol: Example 3: Cellular Proliferation (Alamar Blue) Assays
Sequence of HER2 (A775_G776insYVMA) expressing Ba/F3 stable cell line (P04626 with tags, fused parts or gaps DUP772-775): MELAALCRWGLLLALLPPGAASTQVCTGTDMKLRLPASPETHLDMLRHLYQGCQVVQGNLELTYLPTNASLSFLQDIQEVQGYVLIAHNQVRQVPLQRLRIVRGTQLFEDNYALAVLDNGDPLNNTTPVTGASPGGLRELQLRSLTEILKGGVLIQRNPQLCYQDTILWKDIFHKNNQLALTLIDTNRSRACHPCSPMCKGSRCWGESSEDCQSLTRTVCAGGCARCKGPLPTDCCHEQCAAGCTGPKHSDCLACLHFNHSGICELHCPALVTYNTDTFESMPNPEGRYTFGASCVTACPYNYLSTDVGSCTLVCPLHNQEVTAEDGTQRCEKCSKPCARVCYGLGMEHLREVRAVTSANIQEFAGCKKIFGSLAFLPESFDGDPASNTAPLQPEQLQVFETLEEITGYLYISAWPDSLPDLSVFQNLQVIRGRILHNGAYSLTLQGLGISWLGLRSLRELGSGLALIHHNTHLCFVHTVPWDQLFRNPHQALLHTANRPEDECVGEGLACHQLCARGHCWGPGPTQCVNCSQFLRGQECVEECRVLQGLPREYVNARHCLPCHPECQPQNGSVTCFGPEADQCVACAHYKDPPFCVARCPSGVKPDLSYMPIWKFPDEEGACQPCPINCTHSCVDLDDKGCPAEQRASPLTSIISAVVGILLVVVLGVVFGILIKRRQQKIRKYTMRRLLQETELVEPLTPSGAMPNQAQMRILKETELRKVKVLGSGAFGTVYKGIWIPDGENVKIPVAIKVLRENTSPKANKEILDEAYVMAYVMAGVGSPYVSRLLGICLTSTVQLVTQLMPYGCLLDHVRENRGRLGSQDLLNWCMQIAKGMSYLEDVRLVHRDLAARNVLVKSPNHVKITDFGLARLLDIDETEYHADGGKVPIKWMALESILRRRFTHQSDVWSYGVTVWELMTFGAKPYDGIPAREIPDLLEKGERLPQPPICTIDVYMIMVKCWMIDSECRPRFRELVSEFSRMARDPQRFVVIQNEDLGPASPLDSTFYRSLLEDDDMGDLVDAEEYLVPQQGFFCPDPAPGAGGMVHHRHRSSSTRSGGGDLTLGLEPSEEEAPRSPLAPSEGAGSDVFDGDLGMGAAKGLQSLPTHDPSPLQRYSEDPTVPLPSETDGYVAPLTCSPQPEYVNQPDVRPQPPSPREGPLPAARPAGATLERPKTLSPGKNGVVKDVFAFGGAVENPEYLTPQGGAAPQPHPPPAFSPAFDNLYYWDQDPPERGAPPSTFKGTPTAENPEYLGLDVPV
• 1. EGFR(D770_N771insSVD) expressing Ba/F3 stable cell line • 2. EGFR (A767_dupASV) expressing Ba/F3 stable cell line • 3. A431 cells • 4. BTER2 (A775_G776insYVMA) expressing Ba/F3 stable cell line • 5. BTER2 (WT) expressing Ba/F3 stable cell line • 6. BT-474 cells
• 1. Seed cells at 5000 for A431 and 15,000 cells for Ba/F3 in 100 μL/well in complete media (for A431: DMEM with 10% FBS and for Ba/F3 cells: RPMI with 10% FBS) in 96-well tissue culture plate. Leave outer wells without cells for background measurements. Incubate at 37 degree Celsius in 5% CO2 humidified incubator for 16-18 hours. • 2. Add 0.025 ml of 5× concentration compound dilution or DMSO control. Final compound concentration range is 10-0.0005 μM prepared in 3-fold serial dilutions. Incubate for 72 hr at 37 degree Celsius in […] humidified incubator. • 3. Add 0.0125 mL Alamar Blue™ reagent to each well with multi-channel pipette and tap gently on each side of the plate to mix. Incubate for 3 hours at 37 degree Celsius in […] humidified incubator. • 4. Read plates on fluorescence reader (Tecan Spark Control, Device: Spark, Serial #: 1801006040) at 540 nm excitation, 590 nm emission wavelength. • 5. Data analysis was performed using XLfit 5.5.0.5.

The subject of assay [4] is A431 cells. Briefly: Cellular proliferation (Alamar Blue) assay, A431. Particulars: Homo sapiens, A-431; A431 cells, 72 hr, Alamar Blue; read-out: A431 IC50. Summed up:
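Following a 16–18 h pre-incubation, cells received compound or DMSO for 72 h at 37 °C across a 10–0.0005 μM final range. Proliferation was then scored by Alamar Blue fluorescence (540 nm excitation, 590 nm emission) after 3 h.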

Sequence of EGFR (A767_dupASV) expressing Ba/F3 stable cell line (P00533 with tags, fused parts or gaps DUP767-769): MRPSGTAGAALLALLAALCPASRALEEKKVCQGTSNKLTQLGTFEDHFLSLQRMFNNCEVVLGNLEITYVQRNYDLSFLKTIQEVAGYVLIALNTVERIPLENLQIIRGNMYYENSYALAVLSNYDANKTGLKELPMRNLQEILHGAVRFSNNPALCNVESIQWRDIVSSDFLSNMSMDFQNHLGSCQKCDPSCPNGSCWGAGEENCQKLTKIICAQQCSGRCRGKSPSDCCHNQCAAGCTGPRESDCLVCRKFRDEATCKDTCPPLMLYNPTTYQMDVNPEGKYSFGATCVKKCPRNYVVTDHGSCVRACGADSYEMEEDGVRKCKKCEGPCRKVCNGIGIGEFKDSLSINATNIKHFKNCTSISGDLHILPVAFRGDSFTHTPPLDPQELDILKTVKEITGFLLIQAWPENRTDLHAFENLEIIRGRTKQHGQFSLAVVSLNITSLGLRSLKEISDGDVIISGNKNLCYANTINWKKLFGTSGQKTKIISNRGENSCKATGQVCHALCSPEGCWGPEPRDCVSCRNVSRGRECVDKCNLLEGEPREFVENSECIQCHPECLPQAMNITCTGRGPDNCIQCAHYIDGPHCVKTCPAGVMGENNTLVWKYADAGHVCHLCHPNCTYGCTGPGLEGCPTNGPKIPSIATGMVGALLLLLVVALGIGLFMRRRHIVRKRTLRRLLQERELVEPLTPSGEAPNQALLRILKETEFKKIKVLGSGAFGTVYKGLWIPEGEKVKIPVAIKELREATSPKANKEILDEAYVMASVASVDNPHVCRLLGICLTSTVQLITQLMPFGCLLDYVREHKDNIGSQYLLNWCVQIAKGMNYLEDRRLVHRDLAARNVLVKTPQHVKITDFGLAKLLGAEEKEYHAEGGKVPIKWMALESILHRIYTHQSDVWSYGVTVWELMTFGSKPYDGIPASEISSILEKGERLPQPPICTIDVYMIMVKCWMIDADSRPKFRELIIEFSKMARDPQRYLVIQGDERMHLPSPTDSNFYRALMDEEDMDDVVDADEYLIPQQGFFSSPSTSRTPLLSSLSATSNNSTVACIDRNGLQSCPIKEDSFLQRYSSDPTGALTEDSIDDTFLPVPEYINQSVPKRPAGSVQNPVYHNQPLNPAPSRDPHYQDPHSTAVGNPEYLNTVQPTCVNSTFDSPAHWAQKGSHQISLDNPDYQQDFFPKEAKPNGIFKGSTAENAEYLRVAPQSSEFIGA

Regarding `C=CC(=O)Nc1cccc(N2C(=O)N(c3ccccc3)Cc3cnc(Nc4ccc(N5CCN(C)CC5)nc4)nc32)c1` [Compound 110, N-(3-(7-((6-(4-methylpiperazin-1-yl)pyridin-3-yl)amino)-2-oxo-3-phenyl-3,4-dihydropyrimido[4,5-d]pyrimidin-1(2H)-yl)phenyl)acrylamide], the GI50 in assay [1] was 102 nM; in assay [2], 43 nM; in assay [3], 103 nM. The IC50 in assay [4] worked out at 3640 nM.
Take `Cn1cc(Nc2ncc3c(n2)N(c2cccc(NC(=O)/C=C/CN4CCCCC4)c2)C(=O)N(c2ccccc2)C3)c(Cl)n1` [Compound 111, (E)-N-(3-(7-((3-chloro-1-methyl-1H-pyrazol-4-yl)amino)-2-oxo-3-phenyl-3,4-dihydropyrimido[4,5-d]pyrimidin-1(2H)-yl)phenyl)-4-(piperidin-1-yl)but-2-enamide]: the GI50 in assay [1] was 128 nM; in assay [2], 39 nM; in assay [3] it was 64 nM. For the same molecule, in assay [4], the 50% inhibitory concentration (IC50) is at least 10000 nM.
Consider `C=CC(=O)Nc1cccc(N2C(=O)N(c3ccccc3)Cc3cnc(Nc4ccc(N5CCC(N(C)C)CC5)nc4)nc32)c1` [Compound 112, N-(3-(7-((6-(4-(dimethylamino)piperidin-1-yl)pyridin-3-yl)amino)-2-oxo-3-phenyl-3,4-dihydropyrimido[4,5-d]pyrimidin-1(2H)-yl)phenyl)acrylamide], for which the GI50 worked out at 295 nM in assay [1], 229 nM in assay [2] and 354 nM in assay [3]. Further, in assay [4], the half-maximal inhibitory concentration (IC50) is at least 10000 nM.
The matching figures for `C=CC(=O)Nc1cccc(N2C(=O)N(c3ccccc3)Cc3cnc(Nc4cn(C)nc4F)nc32)c1` [Compound 113, N-(3-(7-((3-fluoro-1-methyl-1H-pyrazol-4-yl)amino)-2-oxo-3-phenyl-3,4-dihydropyrimido[4,5-d]pyrimidin-1(2H)-yl)phenyl)acrylamide]: 17 nM, 4 nM, 68 nM and at least 10000 nM.
The matching figures for `CN(C)C/C=C/C(=O)Nc1cccc(N2C(=O)N(c3ccccc3)Cc3cnc(Nc4cccnc4F)nc32)c1` [Compound 114, (E)-4-(dimethylamino)-N-(3-(7-((2-fluoropyridin-3-yl)amino)-2-oxo-3-phenyl-3,4-dihydropyrimido[4,5-d]pyrimidin-1(2H)-yl)phenyl)but-2-enamide]: 1090 nM, 164 nM, 1150 nM and at least 10000 nM.
For `C=CC(=O)Nc1cccc(N2C(=O)N(c3ccccc3)Cc3cnc(Nc4cccnc4F)nc32)c1` [Compound 115, N-(3-(7-((2-fluoropyridin-3-yl)amino)-2-oxo-3-phenyl-3,4-dihydropyrimido[4,5-d]pyrimidin-1(2H)-yl)phenyl)acrylamide], the GI50 in assay [1] turned out to be 28 nM; in assay [2] it was 8 nM; in assay [3], 188 nM. In assay [4], the IC50 is at least 10000 nM.
In the case of `C=CC(=O)Nc1cccc(N2C(=O)N(c3ccccc3)Cc3cnc(Nc4cn(C)nc4Cl)nc32)c1` [Compound 116, N-(3-(7-((3-chloro-1-methyl-1H-pyrazol-4-yl)amino)-2-oxo-3-phenyl-3,4-dihydropyrimido[4,5-d]pyrimidin-1(2H)-yl)phenyl)acrylamide], the GI50 in assay [1] is 7 nM; in assay [2], 1 nM; in assay [3], 24 nM. Besides, the IC50 in assay [4] is at least 10000 nM.
As to `Cn1cc(Nc2ncc3c(n2)N(c2cccc(NC(=O)/C=C/CF)c2)C(=O)N(c2ccccc2)C3)c(Cl)n1` [Compound 117, (E)-N-(3-(7-((3-chloro-1-methyl-1H-pyrazol-4-yl)amino)-2-oxo-3-phenyl-3,4-dihydropyrimido[4,5-d]pyrimidin-1(2H)-yl)phenyl)-4-fluorobut-2-enamide], the figures for the GI50 in assay [1], in assay [2] and in assay [3] were 50 nM, 35 nM and 75 nM, respectively. In addition, in assay [4], the IC50 was at least 10000 nM.
In the same order, the values of `C=CC(=O)Nc1cccc(N2C(=O)N(c3ccccc3)Cc3cnc(Nc4cccc5c4CCN5C4CCN(C)CC4)nc32)c1` [Compound 118, N-(3-(7-((1-(1-methylpiperidin-4-yl)indolin-4-yl)amino)-2-oxo-3-phenyl-3,4-dihydropyrimido[4,5-d]pyrimidin-1(2H)-yl)phenyl)acrylamide] are 110 nM, 32 nM, 103 nM and at least 10000 nM.
Turning to `COC/C=C/C(=O)Nc1cccc(N2C(=O)N(c3ccccc3)Cc3cnc(Nc4cn(C)nc4Cl)nc32)c1` [Compound 119, (E)-N-(3-(7-((3-chloro-1-methyl-1H-pyrazol-4-yl)amino)-2-oxo-3-phenyl-3,4-dihydropyrimido[4,5-d]pyrimidin-1(2H)-yl)phenyl)-4-methoxybut-2-enamide], the GI50 was 140 nM in assay [1], 98 nM in assay [2] and 144 nM in assay [3]. Moreover, the half-maximal inhibitory concentration (IC50) in assay [4] is at least 10000 nM.
As to `C/C=C/C(=O)Nc1cccc(N2C(=O)N(c3ccccc3)Cc3cnc(Nc4cn(C)nc4Cl)nc32)c1` [Compound 120, (E)-N-(3-(7-((3-chloro-1-methyl-1H-pyrazol-4-yl)amino)-2-oxo-3-phenyl-3,4-dihydropyrimido[4,5-d]pyrimidin-1(2H)-yl)phenyl)but-2-enamide], the GI50 in assay [1] was found to be 183 nM; in assay [2] it was 107 nM; in assay [3], 158 nM. Further, in assay [4], the IC50 is at least 10000 nM.
The matching figures for `C=C(C)C(=O)Nc1cccc(N2C(=O)N(c3ccccc3)Cc3cnc(Nc4cn(C)nc4Cl)nc32)c1` [Compound 121, N-(3-(7-((3-chloro-1-methyl-1H-pyrazol-4-yl)amino)-2-oxo-3-phenyl-3,4-dihydropyrimido[4,5-d]pyrimidin-1(2H)-yl)phenyl)methacrylamide]: at least 10000 nM, 8600 nM, 883 nM and at least 10000 nM.
In the case of `Cn1cc(Nc2ncc3c(n2)N(c2cccc(NC(=O)/C=C/CN4CCOCC4)c2)C(=O)N(c2ccccc2)C3)c(Cl)n1` [Compound 122, (E)-N-(3-(7-((3-chloro-1-methyl-1H-pyrazol-4-yl)amino)-2-oxo-3-phenyl-3,4-dihydropyrimido[4,5-d]pyrimidin-1(2H)-yl)phenyl)-4-morpholinobut-2-enamide], the GI50 in assay [1] is 284 nM; in assay [2], 101 nM; in assay [3], 132 nM. In addition, in assay [4], the half-inhibitory concentration (IC50) was at least 10000 nM.
With `C=CC(=O)Nc1cccc(N2C(=O)N(c3ccccc3)Cc3cnc(Nc4cn(C(C)(C)C#N)nc4Cl)nc32)c1` [Compound 123, N-(3-(7-((3-chloro-1-(2-cyanopropan-2-yl)-1H-pyrazol-4-yl)amino)-2-oxo-3-phenyl-3,4-dihydropyrimido[4,5-d]pyrimidin-1(2H)-yl)phenyl)acrylamide trifluoroacetate salt], the GI50 in assay [1] came to 300 nM; in assay [2] it was 176 nM; in assay [3] it was 319 nM. The concentration for half-maximal inhibition (IC50) in assay [4] was at least 10000 nM.
Regarding `CN(C)C1CCN(C/C=C/C(=O)Nc2cccc(N3C(=O)N(c4ccccc4)Cc4cnc(Nc5cn(C)nc5Cl)nc43)c2)CC1` [Compound 124, (E)-N-(3-(7-((3-chloro-1-methyl-1H-pyrazol-4-yl)amino)-2-oxo-3-phenyl-3,4-dihydropyrimido[4,5-d]pyrimidin-1(2H)-yl)phenyl)-4-(4-(dimethylamino)piperidin-1-yl)but-2-enamide], the GI50 was found to be 4980 nM in assay [1], 2760 nM in assay [2] and 1480 nM in assay [3]. Also, in assay [4], the half-maximal inhibitory concentration (IC50) was at least 10000 nM.

Values taken from US20230027026A1, “FUSED PYRIMIDINE COMPOUNDS, COMPOSITIONS AND MEDICINAL APPLICATIONS THEREOF” (JUBILANT BIOSYS LIMITED, priority 2019, published 2023).
